Experimental data reported in patent US8148392B2, “2-indolyl imidazo [4,5-d] phenanthroline derivatives and their use in the treatment of cancer” (Lorus Therapeutics Inc., priority 2005, dated 2012).
Entries after “also recorded” stand apart in the source; their conditions may differ.

Key:
[1] = tested on: MDA-MB-231 breast cancer cells; assay: XTT cell proliferation assay, MDA-MB-231; type: cell-based, human; conditions: Homo sapiens, read-out: IC50 (cell growth inhibition)
Protocol: Cell growth inhibition IC50 (μM) by compounds of Formula I was tested on various cancer cell types by XTT cell proliferation assay. The growth inhibitory effects of the compounds of Formula I as shown below for the melanoma cell line SK-MEL-2 were reproducible by Lorus Therapeutics Inc.

HT-29 cells = assay: Cell cycle analysis by flow cytometry, HT-29; type: cell-based, human; conditions: HT-29, 24 hours
Protocol: To test the ability of compounds of Formula I to block cell cycle progression, compound 3 was incubated with human colon carcinoma HT-29 or human leukemia CCRF-CEM cells to determine alterations in populations of cells at different stages of the cell cycle using flow cytometric analysis. HT-29 cells were maintained as described in Example 13. CCRF-CEM cells used in this example and subsequent examples were maintained as suspension cells in a growth medium; RPMI-1640 medium (Sigma, St. Louis, Mo.), supplemented with 2 mM L-glutamine (Gibco, Grand Island, N.Y.), 10% fetal bovine serum (FBS) (Multicell, WISENT Inc. St-Bruno, QC), antibiotic-antimycotic (Multicell), at 37° C. in a 5% CO2-humidified incubator.
The assay was carried out as follows. For HT-29 cells, 1×10^6 cells in 10 mL volume of the growth medium were seeded in 100 mm dishes. For CCRF-CEM cells, 3×10^6 cells in 10 mL volume of the growth medium were seeded in 25 cm^2 flask. […] The fluorescence of stained cells was analyzed using FACScan flow cytometer and the Cell Quest program (BD Biosciences, San Jose, Calif.). Data were evaluated using Modfit software (Verity software House, Topsham, Me.). Values were determined by gate analysis of flow cytometric plots. […]
Cell cycle analysis was assessed by flow cytometry in HT-29 cells treated with compound 3 as shown in FIG. 27A and compound 7 as shown in FIG. 27B.

[2] = tested on: human lung NCI-H460 cells; assay: Large-cell lung carcinoma NCI-H460 xenograft model, tumour growth; type: in vivo, CD-1 female nude mice; conditions: for tumour size and weight: Lutrol (i.p.), lipid-based (i.v.) or water-based (i.p.) formulations
Protocol: The ability of compounds of Formula I to inhibit large-cell lung tumour growth in vivo was tested by determining the efficacy of compound 3 in a xenograft model as described below. Compound 3 was tested as a lipid-based formulation having the following composition: distearoylphosphatidylethanolamine-polyethylene glycol 2000 (DSPE-PEG/5% mole) and egg phosphatidylcoline (ePC/95% mole). The formulation was prepared as follows: Stock solutions of compound 3 and lipid (ePC and DSPE-PEG) were prepared in DMF. Specific volumes of the stock solutions of compound 3 and lipid were then mixed in order to achieve a final lipid concentration of 25 mg/mL (ePC:DSPE-PEG=95:5 (mol %) and a compound 3 to total lipid ratio of 1:10 (w/w). The mixture was stirred for four hours, thoroughly dried under nitrogen and left overnight under vacuum. HEPES buffer saline (HBS 0.01 M, pH=7.4) warmed to 60° C. was then added in order to rehydrate the dried film. The solutions were vortexed, stirred for 48 hours at room temperature and sonicated for two and half hours. The formulation was then centrifuged at 1000 rpm for 5 minutes to remove any free compound 3.
CD-1 female nude mice (6-7 weeks, 7 mice per treatment group) were injected […] with human lung NCI-H460 cells (3×10^6 cells in 0.1 ml PBS) subcutaneously. Treatment of the mice with vehicle or compound 3 was initiated 5 days post-inoculation (size of tumours=20-40 mm^3) for 7-day cycles of five days followed by a 2 day break for the duration of the experiment (35 days). Mice were treated with 80 mg/kg/d for the first week followed by 40 mg/kg/d until the end of the experiment. The size of the tumours was measured over the course of the experiment using calipers, and the weight of the tumours was measured after the animals were sacrificed.
The ability of compounds 3, 5, and 7 to inhibit large-cell lung carcinoma cell growth in vivo was tested in the mouse xenograft model as described in Example 27. The compounds were tested as Lutrol formulations (administered i.p.), lipid-based formulations micelles (administered i.v.), or water-based formulations (administered i.p.). The vehicle controls included Lutrol control (administered i.p.), lipid micelle control (administered i.v.), and water control (administered i.p.). Lutrol formulations contained 15% Lutrol and 10% DMSO. The composition of the lipid-based formulations and preparation of same was as described in Example 27 above.

[3] = PAR metal binding assay, copper; type: physicochemical; conditions: pH 7.5, 200 μM PAR
Protocol: (§1) Results are shown in FIGS. 28A (ZnCl2), 28B (CuCl2) and 28C (FeCl2). In vitro 4-(2-pyridylazo) resorcinol (PAR) zinc binding assay was performed as follows. In triplicate wells of 96-well plate (Sarstedt, Newton, N.C.), 10 μL volume of indicated final concentrations of ZnCl2 in 0.2M Tris-HCl, pH 7.5 was incubated with 10 μL of 80% acetonitrile-20% DMSO vehicle control or indicated final concentrations of the compounds of Formula I, dissolved in 80% acetonitrile-20% DMSO, for 15 min at room temperature. Then, 80 μL of PAR at final concentration of 200 μM in 0.2M Tris-HCl, pH 7.5 was added and the color development of PAR-Zn^2+ complex was measured by a multi-well spectrophotometer (Bio-Tek Instruments Inc.) at 500 nm.
(§2) Metal chelation property of compound 64 and the relative affinity on different metal ions were evaluated and compared with the effect of compound 3 in vitro using 4-(2-pyridylazo) resorcinol (PAR) colorimetric zinc assay utilizing methodology as described above in the preceding Examples. Indicated final concentrations of ZnCl2 (FIG. 56A), CuCl2 (FIG. 56B) or FeCl2 (FIG. 56C) were incubated with 80% acetonitrile-20% DMSO vehicle control or 200 μM of the compounds of Formula I. The color development of PAR-metal ion complex was measured by a multi-well spectrophotometer at 500 nm.

[4] = PAR metal binding assay, iron; type: physicochemical; conditions: 200 μM compound
Protocol: as §1, §2

Row | Structure (SMILES) | IC50 [1] [µM] | cell cycle progression (HT-29 cells) | tumour size and weight [2] | tumour growth (size and weight) ([2]; lipid-based formulation, 80 mg/kg/d first week then 40 mg/kg/d, 35 days) | Cu+2 binding to PAR (PAR-Cu2+ absorbance at 500 nm) [3] | color development of PAR-Fe2+ [4]
1 | Cc1[nH]c2ccccc2c1-c1nc2c3cccnc3c3ncccc3c2[nH]1 [Compound 3] | 5 | induced a block in cell cycle progression at the G1 phase; also recorded: Cell cycle arrest at G1/S phase was observed | able to decrease the size (FIG. 16A) and weight (FIG. 16B) of tumours | able to inhibit large-cell lung tumour growth | attenuated; also recorded: eliminated | minimally affected
2 | Cc1[nH]c2ccc(F)cc2c1-c1nc2c3cccnc3c3ncccc3c2[nH]1 [Compound 7] | 5 | Cell cycle arrest at G1/S phase was observed | able to decrease the size (FIG. 16A) and weight (FIG. 16B) of tumours |  |  | 
3 | CCc1cccc2c(-c3nc4c5cccnc5c5ncccc5c4[nH]3)c(C(C)(C)C)[nH]c12 [Compound 64] |  |  |  |  | eliminated | minimally affected
